Source: patent US11053204B2, “Pyrimidinyloxy benzene derivatives as herbicides” (FMC Corporation, priority 2015, dated 2021)

Legend:
Test in all cases: Test C postemergence, plant response rating
Type in all cases: in vivo
[1] = tested on: ryegrass, Italian (Italian ryegrass, Lolium multiflorum); details: for Ryegrass, Italian plant response rating: scale 0 to 100 (0 no effect, 100 complete control)
Outline: (§1)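 After sowing in loam–sand blend or silt loam, pots were sprayed preemergence; separately grown 1- to 4-leaf plants were sprayed postemergence. Following 13 to 15 d under greenhouse conditions, injury was rated visually on a 0 to 100 scale.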

[2] = tested on: barnyardgrass (Echinochloa crus-galli); details: for Plant response rating, Barnyardgrass: scale 0 to 100; for Barnyardgrass plant response rating: scale 0 to 100 (0 no effect, 100 complete control)
Outline: as §1

corn (Zea mays) = details: for Corn plant response rating: scale 0 to 100 (0 no effect, 100 complete control)
Outline: as §1

[3] = tested on: oilseed rape (Brassica napus); details: for Oilseed Rape plant response rating: scale 0 to 100 (0 no effect, 100 complete control)
Outline: as §1

kochia (Kochia scoparia) = details: for Kochia plant response rating: scale 0 to 100 (0 no effect, 100 complete control)
Outline: as §1

soybean (Glycine max) = details: for Soybean plant response rating: scale 0 to 100 (0 no effect, 100 complete control)
Outline: as §1

[4] = tested on: nutsedge, yellow (yellow nutsedge, Cyperus esculentus); details: for Nutsedge, Yellow plant response rating: scale 0 to 100 (0 no effect, 100 complete control)
Outline: as §1

[5] = tested on: ragweed (common ragweed, Ambrosia elatior); details: for Ragweed plant response rating: scale 0 to 100 (0 no effect, 100 complete control)
Outline: as §1

[6] = tested on: wheat (winter wheat, Triticum aestivum)
Outline: as §1

[7] = tested on: velvetleaf (Abutilon theophrasti)
Outline: as §1

[8] = tested on: galium (catchweed bedstraw, Galium aparine); details: for Galium plant response rating: scale 0 to 100 (0 no effect, 100 complete control)
Outline: as §1

[9] = tested on: crabgrass, large (large crabgrass, Digitaria sanguinalis); details: for Crabgrass, Large plant response rating: scale 0 to 100 (0 no effect, 100 complete control)
Outline: as §1

[10] = tested on: lambsquarters (Chenopodium album); details: for Lambsquarters plant response rating: scale 0 to 100 (0 no effect, 100 complete control)
Outline: as §1

[11] = tested on: blackgrass (Alopecurus myosuroides); details: for Plant response rating, Blackgrass: scale 0 to 100; for Blackgrass plant response rating: scale 0 to 100 (0 no effect, 100 complete control)
Outline: as §1

[12] = tested on: oat, wild (wild oat Avena fatua); details: for Oat, Wild plant response rating: scale 0 to 100 (0 no effect, 100 complete control)
Outline: as §1

[13] = tested on: waterhemp (common waterhemp, Amaranthus rudis)
Outline: as §1

[14] = 125 g ai/ha, scale 0 to 100 (0 no effect, 100 complete control)

CCCC(=O)c1c(Oc2ncc(Cl)cn2)cccc1C(F)(F)F [Compound 136]
Plant response rating, Ryegrass, Italian ([1]; 16 g ai/ha, scale of 0 to 100): 0 | Plant response rating, Ryegrass, Italian ([1]; 31 g ai/ha, scale 0 to 100): 5 | Ryegrass, Italian plant response rating ([1]; 62 g ai/ha): 5 | Ryegrass, Italian plant response rating ([1]; 125 g ai/ha): 10 | Plant response rating, Barnyardgrass ([2]; 16 g ai/ha): 5 | Plant response rating, Barnyardgrass ([2]; 31 g ai/ha): 5 | Barnyardgrass plant response rating ([2]; 62 g ai/ha): 10 | Barnyardgrass plant response rating ([2]; 125 g ai/ha): 10 | Plant response rating, Corn (corn (Zea mays); 16 g ai/ha, scale of 0 to 100): 5 | Plant response rating, Corn (corn (Zea mays); 31 g ai/ha, scale 0 to 100): 10 | Corn plant response rating (corn (Zea mays); 62 g ai/ha): 20 | Corn plant response rating (corn (Zea mays); 125 g ai/ha): 20 | Plant response rating, Oilseed Rape ([3]; 16 g ai/ha, scale of 0 to 100): 65 | Plant response rating, Oilseed Rape ([3]; 31 g ai/ha, scale 0 to 100): 80 | Oilseed Rape plant response rating ([3]; 62 g ai/ha): 80 | Oilseed Rape plant response rating ([3]; 125 g ai/ha): 80 | Plant response rating, Kochia (kochia (Kochia scoparia); 16 g ai/ha, scale of 0 to 100): 80 | Plant response rating, Kochia (kochia (Kochia scoparia); 31 g ai/ha, scale 0 to 100): 80 | Kochia plant response rating (kochia (Kochia scoparia); 62 g ai/ha): 85 | Kochia plant response rating (kochia (Kochia scoparia); 125 g ai/ha): 90 | Plant response rating, Soybean (soybean (Glycine max); 16 g ai/ha, scale of 0 to 100): 30 | Plant response rating, Soybean (soybean (Glycine max); 31 g ai/ha, scale 0 to 100): 40 | Soybean plant response rating (soybean (Glycine max); 62 g ai/ha): 50 | Soybean plant response rating (soybean (Glycine max); 125 g ai/ha): 40 | Plant response rating, Nutsedge, Yellow ([4]; 16 g ai/ha, scale of 0 to 100): 0 | Plant response rating, Nutsedge, Yellow ([4]; 31 g ai/ha, scale 0 to 100): 0 | Nutsedge, Yellow plant response rating ([4]; 62 g ai/ha): 0 | Nutsedge, Yellow plant response rating ([4]; 125 g ai/ha): 5 | Plant response rating, Ragweed ([5]; 16 g ai/ha, scale of 0 to 100): 20 | Plant response rating, Ragweed ([5]; 31 g ai/ha, scale 0 to 100): 20 | Ragweed plant response rating ([5]; 62 g ai/ha): 30 | Ragweed plant response rating ([5]; 125 g ai/ha): 35 | Plant response rating, Wheat ([6]; 16 g ai/ha, scale of 0 to 100): 0 | Plant response rating, Wheat ([6]; 31 g ai/ha, scale 0 to 100): 5 | Wheat plant response rating [6, 14]: 5 | Plant response rating, Velvetleaf ([7]; 16 g ai/ha, scale of 0 to 100): 20 | Plant response rating, Velvetleaf ([7]; 31 g ai/ha, scale 0 to 100): 50 | Velvetleaf plant response rating [7, 14]: 70 | Plant response rating, Galium ([8]; 16 g ai/ha, scale of 0 to 100): 50 | Plant response rating, Galium ([8]; 31 g ai/ha, scale 0 to 100): 65 | Galium plant response rating ([8]; 62 g ai/ha): 60 | Galium plant response rating ([8]; 125 g ai/ha): 75 | Plant response rating, Crabgrass, Large ([9]; 16 g ai/ha, scale of 0 to 100): 5 | Plant response rating, Crabgrass, Large ([9]; 31 g ai/ha, scale 0 to 100): 5 | Crabgrass, Large plant response rating ([9]; 62 g ai/ha): 10 | Crabgrass, Large plant response rating ([9]; 125 g ai/ha): 30 | Plant response rating, Lambsquarters ([10]; 16 g ai/ha, scale of 0 to 100): 55 | Plant response rating, Lambsquarters ([10]; 31 g ai/ha, scale 0 to 100): 75 | Lambsquarters plant response rating ([10]; 62 g ai/ha): 80 | Lambsquarters plant response rating ([10]; 125 g ai/ha): 80 | Plant response rating, Blackgrass ([11]; 16 g ai/ha): 5 | Plant response rating, Blackgrass ([11]; 31 g ai/ha): 10 | Blackgrass plant response rating ([11]; 62 g ai/ha): 10 | Blackgrass plant response rating ([11]; 125 g ai/ha): 15 | Plant response rating, Oat, Wild ([12]; 16 g ai/ha, scale of 0 to 100): 5 | Plant response rating, Oat, Wild ([12]; 31 g ai/ha, scale 0 to 100): 5 | Oat, Wild plant response rating ([12]; 62 g ai/ha): 10 | Oat, Wild plant response rating ([12]; 125 g ai/ha): 10 | Plant response rating, Waterhemp ([13]; 16 g ai/ha, scale of 0 to 100): 70 | Plant response rating, Waterhemp ([13]; 31 g ai/ha, scale 0 to 100): 70 | Waterhemp plant response rating [13, 14]: 75
